In the assay the test system is L1210 leukemia ip in BDF1 mice, survival T/C. The assay is described as follows: NCI In Vivo Anticancer Drug Screen. Data for tumor model L1210 Leukemia (intraperitoneal) in B6D2F1 (BDF1) mice. The conditions noted are these: endpoint: mean survival time, higher = longer survival. The method, boiled down: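 Transplanted-tumor mice were given test agent; controls received vehicle only. Survival readings from the two groups were divided (treated over control).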

Setting [1] is: dose: 100.0 mg/kg/injection, schedule: Q01DX001 (ip), vehicle: Klucel (hydroxypropylcellulose) (HPC).
Setting [2] is: dose: 200.0 mg/kg/injection, schedule: Q01DX001 (ip), vehicle: Klucel (hydroxypropylcellulose) (HPC).
Setting [3] is: dose: 400.0 mg/kg/injection, schedule: Q01DX001 (ip), vehicle: Klucel (hydroxypropylcellulose) (HPC).

Our source for the T/C values is PubChem BioAssay AID248 (DTP/NCI, 2004).

Several values for one entry are separate records, joined by “and”; a condition that tells them apart may be missing. Identical values can stand only once. Toxic doses and inconclusive results are not listed.

With `C1CCC(NC2=NCCO2)CC1`, the T/C is 101 % of control (dose: 12.5 mg/kg/injection, schedule: Q04DX002 (ip), vehicle: saline with Tween-80); 93 % of control (dose: 25.0 mg/kg/injection, schedule: Q04DX002 (ip), vehicle: saline with Tween-80); 90 % of control (dose: 50.0 mg/kg/injection, schedule: Q04DX002 (ip), vehicle: saline with Tween-80).

Regarding `O=C1CCCCCC2CC12` (stereo unspecified), the T/C is 105 % of control (dose: 100.0 mg/kg/injection, schedule: Q04DX002 (sc), vehicle: olive oil, sesame oil, peanut oil); 112 % of control (dose: 200.0 mg/kg/injection, schedule: Q04DX002 (sc), vehicle: olive oil, sesame oil, peanut oil); 109 % of control (dose: 400.0 mg/kg/injection, schedule: Q04DX002 (sc), vehicle: olive oil, sesame oil, peanut oil).

Consider `COc1cc(C(=O)NC2CC(C)CC(C)(C)C2)cc(OC)c1OC` (stereo unspecified), for which the T/C by setting is: (dose: 100.0 mg/kg/injection, schedule: Q01DX009 (ip), vehicle: Klucel (hydroxypropylcellulose) (HPC)) 91 % of control; (dose: 100.0 mg/kg/injection, schedule: Q04DX002 (ip), vehicle: Klucel (hydroxypropylcellulose) (HPC)) 92 % of control; (dose: 200.0 mg/kg/injection, schedule: Q01DX009 (ip), vehicle: Klucel (hydroxypropylcellulose) (HPC)) 91 % of control; (dose: 200.0 mg/kg/injection, schedule: Q04DX002 (ip), vehicle: Klucel (hydroxypropylcellulose) (HPC)) 98 % of control; (dose: 400.0 mg/kg/injection, schedule: Q01DX009 (ip), vehicle: Klucel (hydroxypropylcellulose) (HPC)) 91 % of control; (dose: 400.0 mg/kg/injection, schedule: Q04DX002 (ip), vehicle: Klucel (hydroxypropylcellulose) (HPC)) 103 % of control.

As to `CC(C)(C)C(=O)CC(=O)C(C)(C)C.CC(C)(C)C(=O)CC(=O)C(C)(C)C.CC(C)(C)C(=O)CC(=O)C(C)(C)C.CC(C)(C)C(=O)CC(=O)C(C)(C)C.[Th]`, the T/C was 96 % of control (dose: 100.0 mg/kg/injection, schedule: Q04DX003 (ip), vehicle: saline with Tween-80); 98 % of control (dose: 200.0 mg/kg/injection, schedule: Q04DX003 (ip), vehicle: saline with Tween-80); 90 % of control (dose: 400.0 mg/kg/injection, schedule: Q04DX003 (ip), vehicle: saline with Tween-80).

`O=C(NCCCl)NC1CCC2CCCCC2C1` (stereo unspecified): the T/C by setting is: under setting [1], 100 % of control; (dose: 100.0 mg/kg/injection, schedule: Q04DX003 (ip), vehicle: Klucel (hydroxypropylcellulose) (HPC)) 92 % of control; under setting [2], 102 % of control; (dose: 200.0 mg/kg/injection, schedule: Q04DX003 (ip), vehicle: Klucel (hydroxypropylcellulose) (HPC)) 97 % of control; under setting [3], 92 % of control; (dose: 400.0 mg/kg/injection, schedule: Q04DX003 (ip), vehicle: Klucel (hydroxypropylcellulose) (HPC)) 97 % of control.

As for `FC(F)(F)c1ccc(N2CCCCC2)cc1`, the T/C is, setting by setting: (dose: 75.0 mg/kg/injection, schedule: Q04DX002 (ip), vehicle: saline) 103 % of control; (dose: 150.0 mg/kg/injection, schedule: Q04DX002 (ip), vehicle: saline) 95 % of control; (dose: 300.0 mg/kg/injection, schedule: Q04DX002 (ip), vehicle: saline) 95 % of control.

Regarding `CCCCCCCCN(CCCCCCCC)CC(O)c1ccc2cc(Br)c3ccccc3c2c1` (stereo unspecified), the T/C was 113 % of control (dose: 100.0 mg/kg/injection, schedule: Q04DX003 (ip), vehicle: acetone); 120 % of control (dose: 200.0 mg/kg/injection, schedule: Q04DX003 (ip), vehicle: acetone); 103 % of control (dose: 400.0 mg/kg/injection, schedule: Q04DX003 (ip), vehicle: acetone).

As to `O=C1C(=O)c2ccccc2C(O)=C1c1ccc2ccccc2c1`, the T/C by setting is: (dose: 50.0 mg/kg/injection, schedule: Q01DX001 (ip), vehicle: carboxymethylcellulose (CMC)) 96 % of control; (dose: 100.0 mg/kg/injection, schedule: Q01DX001 (ip), vehicle: carboxymethylcellulose (CMC)) 96 % of control; (dose: 200.0 mg/kg/injection, schedule: Q01DX001 (ip), vehicle: carboxymethylcellulose (CMC)) 91 % of control; (dose: 400.0 mg/kg/injection, schedule: Q01DX001 (ip), vehicle: carboxymethylcellulose (CMC)) 96 % of control.

Regarding `CC(=O)NC(CSC(=S)N(C)C)C(=O)O` (stereo unspecified), the T/C (dose: 50.0 mg/kg/injection, schedule: Q01DX009 (ip), vehicle: saline) was 97 % of control; the T/C (dose: 100.0 mg/kg/injection, schedule: Q01DX009 (ip), vehicle: saline) was 93 % of control; the T/C (dose: 200.0 mg/kg/injection, schedule: Q01DX009 (ip), vehicle: saline) was 101 % of control.

Consider `CCC1CN2CCc3cc(OC)c(OC)cc3C2CC1CC1c2cc(OC)c(OC)cc2CCN1C(=O)C(N)Cc1ccccc1` (stereo unspecified), for which the T/C (dose: 100.0 mg/kg/injection, schedule: Q01DX001 (ip), vehicle: saline) was 107 % of control; the T/C (dose: 200.0 mg/kg/injection, schedule: Q01DX001 (ip), vehicle: saline) is 97 % of control; the T/C (dose: 400.0 mg/kg/injection, schedule: Q01DX001 (ip), vehicle: saline) is 110 % of control.

For `CC1CCC2(CC1)CCN(CCCN(C)C)CC2`, the T/C was 102 % of control (dose: 15.0 mg/kg/injection, schedule: Q01DX015 (ip), vehicle: saline); 102 % of control (dose: 30.0 mg/kg/injection, schedule: Q01DX015 (ip), vehicle: saline); 100 % of control (dose: 60.0 mg/kg/injection, schedule: Q01DX015 (ip), vehicle: saline); 104 % of control (dose: 120.0 mg/kg/injection, schedule: Q01DX015 (ip), vehicle: saline); 107 % of control (dose: 200.0 mg/kg/injection, schedule: Q01DX015 (ip), vehicle: saline).

As for `C[NH-].C[NH-].[Cl][Pt+2][Cl]`, the T/C by setting is: (dose: 0.38 mg/kg/injection, schedule: Q03HX024 (ip), vehicle: water) 111 % of control; (dose: 0.75 mg/kg/injection, schedule: Q03HX024 (ip), vehicle: water) 109 % of control; (dose: 1.0 mg/kg/injection, schedule: Q01DX009 (ip), vehicle: other) 108 % of control; (dose: 1.5 mg/kg/injection, schedule: Q03HX024 (ip), vehicle: water) 107 % of control; (dose: 1.56 mg/kg/injection, schedule: Q03HX008 (ip), vehicle: water) 106 % of control; (dose: 2.0 mg/kg/injection, schedule: Q01DX001 (ip), vehicle: other) 108 % of control. In addition, the T/C is 122 % of control (dose: 2.0 mg/kg/injection, schedule: Q01DX009 (ip), vehicle: other); 110 % of control (dose: 2.5 mg/kg/injection, schedule: Q01DX009 (ip), vehicle: water); 113 % of control (dose: 2.6 mg/kg/injection, schedule: Q01DX009 (ip), vehicle: saline with Tween-80); 116 % of control (dose: 3.0 mg/kg/injection, schedule: Q04DX003 (ip), vehicle: water); 115 % of control (dose: 3.13 mg/kg/injection, schedule: Q03HX008 (ip), vehicle: water); 95 % of control (dose: 4.0 mg/kg/injection, schedule: Q01DX001 (ip), vehicle: other). The T/C is 116 % of control (dose: 4.0 mg/kg/injection, schedule: Q01DX009 (ip), vehicle: other); 124 % of control (dose: 4.0 mg/kg/injection, schedule: Q01DX009 (ip), vehicle: saline with Tween-80); 115 % of control and 120 % of control (dose: 5.0 mg/kg/injection, schedule: Q04DX003 (ip), vehicle: saline with Tween-80); 123 % of control (dose: 6.0 mg/kg/injection, schedule: Q04DX003 (ip), vehicle: water); 105 % of control (dose: 8.0 mg/kg/injection, schedule: Q01DX001 (ip), vehicle: other); 123 % of control (dose: 8.0 mg/kg/injection, schedule: Q04DX003 (ip), vehicle: saline with Tween-80). Also, the T/C is, setting by setting: (dose: 9.0 mg/kg/injection, schedule: Q01DX009 (ip), vehicle: saline with Tween-80) 108 % of control; (dose: 12.0 mg/kg/injection, schedule: Q04DX003 (ip), vehicle: saline with Tween-80) 164 % of control; (dose: 12.5 mg/kg/injection, schedule: Q01DX009 (ip), vehicle: saline with Tween-80) 98 % of control and 90 % of control; (dose: 16.0 mg/kg/injection, schedule: Q01DX001 (ip), vehicle: other) 123 % of control; (dose: 16.0 mg/kg/injection, schedule: Q01DX009 (ip), vehicle: other) 90 % of control; (dose: 25.0 mg/kg/injection, schedule: Q01DX001 (ip), vehicle: water) 120 % of control. Besides, the T/C is 119 % of control (dose: 32.0 mg/kg/injection, schedule: Q01DX001 (ip), vehicle: other) and 88 % of control (dose: 50.0 mg/kg/injection, schedule: Q04DX003 (ip), vehicle: saline with Tween-80).

In the case of `CCOC(=O)C(CCC#N)C1=NC(C)(C)CC(C)O1` (stereo unspecified), the T/C reads like this: under setting [1], 97 % of control; under setting [2], 101 % of control; under setting [3], 103 % of control.
